Reference: ChEMBL document CHEMBL1201862, “PubChem BioAssay data set” (2004)
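Each compound was tested at five concentrations against cells in 96-well plates for 48 hours. Abbreviation: GI50, concentration required for 50% inhibition of growth.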 Active and inactive are the calls of the source. No stated cut-off is given here; in the data, active = GI50 up to about 1.1 µM and inactive = higher.

What was measured:
Test in all cases: NCI tumour cell line growth inhibition, 48 h
[1] = system: EKVX
[2] = system: HT-29
[3] = system: A498
[4] = system: SN12C
[5] = system: NCI/ADR-RES
[6] = system: SK-MEL-5
[7] = system: HOP-62
[8] = system: SNB-19
[9] = system: ACHN
[10] = system: K562
[11] = system: OVCAR-4
[12] = system: U-251
[13] = system: SF-268
[14] = system: UACC-257
[15] = system: 786-0
[16] = system: UACC-62
[17] = system: MOLT-4
[18] = system: RPMI-8226
[19] = system: M14
[20] = system: MDA-N

Compound	GI50 [1]	GI50 [2]	GI50 [3]	GI50 [4]	GI50 [5]	GI50 [6]	GI50 [7]	GI50 [8]	GI50 [9]	GI50 [10]	GI50 [11]	GI50 [12]	GI50 [13]	GI50 [14]	GI50 [15]	GI50 [16]	GI50 [17]	GI50 [18]	GI50 [19]	GI50 [20]
CN(C)C(=S)NC(=S)Nc1ccc2ccccc2c1	14.1 µM (inactive)	12 µM (inactive)	12.6 µM (inactive)	2.69 µM (inactive)	13.8 µM (inactive)	7.18 µM (inactive)	18.4 µM (inactive)	12.3 µM (inactive)	18.6 µM (inactive)	2.65 µM (inactive)	24.7 µM (inactive)	11.6 µM (inactive)	10.3 µM (inactive)	8.95 µM (inactive)	12.8 µM (inactive)	2.14 µM (inactive)	4.93 µM (inactive)	5.56 µM (inactive)	12.7 µM (inactive)	12.9 µM (inactive)
O=C(O)c1nnsc1COCc1ccccc1	> 100 µM (inactive)	> 100 µM (inactive)	> 100 µM (inactive)	> 100 µM (inactive)	> 100 µM (inactive)	> 100 µM (inactive)	> 100 µM (inactive)	> 100 µM (inactive)	> 100 µM (inactive)	> 100 µM (inactive)	> 100 µM (inactive)	> 100 µM (inactive)	> 100 µM (inactive)	> 100 µM (inactive)	> 100 µM (inactive)	> 100 µM (inactive)	> 100 µM (inactive)	> 100 µM (inactive)	> 100 µM (inactive)	> 100 µM (inactive)
CC(C)=CCNc1ncnc2c1c(C#N)cn2C1OC(CO)C(O)C1O (stereo not given)	10.4 µM (inactive)	12.3 µM (inactive)	24 µM (inactive)	12.7 µM (inactive)	> 82 µM (inactive)	21.7 µM (inactive)	53.1 µM (inactive)	> 53.8 µM (inactive)	9.82 µM (inactive)	3.86 µM (inactive)	1.1 µM (active)	> 67.5 µM (inactive)	> 100 µM (inactive)	> 100 µM (inactive)	> 100 µM (inactive)	39.7 µM (inactive)	65.2 µM (inactive)	3.56 µM (inactive)	> 58.3 µM (inactive)	42.1 µM (inactive)
CC(C)=CC(=O)C[C@H]1C(=O)O[C@@H]2C[C@H]3C(C)=CC(=O)[C@@H](O)[C@]3(C)[C@H]3[C@@]4(O)OC[C@]32[C@@H]1[C@@H](C)[C@H]4O	0.175 µM (active)	< 0.0107 µM (active)	0.236 µM (active)	0.043 µM (active)	0.631 µM (active)	< 0.01 µM (active)	0.0227 µM (active)	< 0.0127 µM (active)	0.0278 µM (active)	< 0.01 µM (active)	0.0364 µM (active)	< 0.01 µM (active)	0.0275 µM (active)	0.0185 µM (active)	0.0266 µM (active)	0.0313 µM (active)	< 0.01 µM (active)	< 0.01 µM (active)	0.0196 µM (active)	< 0.0189 µM (active)
COc1ccc(-c2coc3c4c(ccc3c2=O)OCO4)cc1OC	38.5 µM (inactive)	> 100 µM (inactive)	> 100 µM (inactive)	> 100 µM (inactive)	35.8 µM (inactive)	55.5 µM (inactive)	36.7 µM (inactive)	29 µM (inactive)	49.2 µM (inactive)	7.6 µM (inactive)	22.5 µM (inactive)	37.2 µM (inactive)	34 µM (inactive)	> 100 µM (inactive)	35.4 µM (inactive)	44.9 µM (inactive)	> 100 µM (inactive)	> 100 µM (inactive)	> 100 µM (inactive)	5.79 µM (inactive)
O=C1CC(NC2CC(=O)c3c(Br)sc(Br)c32)c2c(Br)sc(Br)c21 (stereo not given)	3 µM (inactive)	2.84 µM (inactive)	18.6 µM (inactive)	1.56 µM (inactive)	13.9 µM (inactive)	5.96 µM (inactive)	2.99 µM (inactive)	14.9 µM (inactive)	2.39 µM (inactive)	2.55 µM (inactive)	8.51 µM (inactive)	1.82 µM (inactive)	11.7 µM (inactive)	2.03 µM (inactive)	1.51 µM (inactive)	11.9 µM (inactive)	2.26 µM (inactive)	0.597 µM (active)	5.58 µM (inactive)	2.06 µM (inactive)
Cc1ccc(/N=C2N=C(Cl)/C(=C\c3ccco3)N\2)cc1	> 100 µM (inactive)	> 100 µM (inactive)	> 100 µM (inactive)	> 100 µM (inactive)	> 100 µM (inactive)	> 100 µM (inactive)	> 100 µM (inactive)	> 100 µM (inactive)	> 100 µM (inactive)	> 100 µM (inactive)	> 100 µM (inactive)	> 100 µM (inactive)	> 100 µM (inactive)	> 100 µM (inactive)	> 100 µM (inactive)	> 100 µM (inactive)	> 91.8 µM (inactive)	> 87.1 µM (inactive)	> 100 µM (inactive)	> 100 µM (inactive)
